# Results published in publication PMC12032302, “A20 attenuates oxidized self-DNA-mediated inflammation in acute kidney injury” (Signal Transduction and Targeted Therapy, 2025).
# Tests used:
# patients = settings: first course of cisplatin treatment; cited from earlier work
# Excerpt: Acute kidney injury (AKI) is a life-threatening condition characterized by a rapid loss of renal function, leading to high mortality and morbidity.[1],[2] Approximately 13% of patients received the first course of cisplatin treatment developed AKI.[2],[3] Despite various initial triggers, the pathophysiology of AKI often involves common pathogenic denominators, such as cell death, tissue injury, and drastic inflammation.[4] Several types of cell death have been recently described in AKI, and multiple strategies targeting cell death have been reported to help mitigate the progression of AKI.[5] ...
# AKI mice [1] = assay: renal fibrosis of AKI mice (Masson staining); assay type: in vivo, mouse; settings: Cis mice; metformin 50 mg/kg i.p. 24 h before and every 24 h after; n = 5
# Method: LPS (Sigma, Cat#L2630) was dissolved in PBS to 2.5 mg/mL for one-time intraperitoneal 25 mg/kg injection; deoxyribonuclease I (DNase I, Sigma, Cat#SLBV1446) was dissolved in PBS to 1 mg/mL and injected intraperitoneally at a dose of 10 mg/kg at 4 h before cisplatin or AA I injection and every 24 h after injection. Disulfiram (MedChemExpress, CAS:97-77-8) was diluted in corn oil to 12.5 mg/mL and injected 50 mg/kg intraperitoneally every 24 h after cisplatin or AA I administration. Cu(II) (Sigma, Cat#344419) was dissolved in PBS to 30 µg/mL and administered intraperitoneally 6 h before disulfiram at a dose of 0.15 mg/kg; TNF-α (Peprotech, Cat#315-01 A) was dissolved in PBS to 10 µg/mL and injected at 100 µg/kg once through the caudal vein 24 h before cisplatin injection. […] Renal function was evaluated based on serum creatinine level and histological features. Serum creatinine was determined in the Clinical Pharmacology Lab, Clinical Trial Center, WCH, SCU. […] The pathological changes were detected through optical microscopy, and the tubulointerstitial injury score was determined as previously reported.
# NEK7 [2] = assay: NEK7 expression in renal tissue of mice (immunoblot); assay type: in vivo, mouse; settings: Cis mice, metformin 50 mg/kg i.p., Fig. 9b
# Method: For immunoblot analysis of kidney tissue, total protein lysates were prepared from renal tissue, which was ground in liquid nitrogen and then added to lysis buffer in a Total Protein Extraction Kit (Signalway Antibody, Cat#PE001). Samples were centrifuged at 12,000 rpm for 15 min at 4 °C, and the supernatant was collected immediately. […] Ultimately, both types of protein samples were then mixed with 4× Laemmli loading buffer (Bio-Rad, Cat#1610747) and denatured by boiling at 95 °C for 5 min.
# Prepared protein samples were subjected to 6-15% SDS polyacrylamide gels and separated according to the protein concentrations. Then, the protein bands were transferred to polyvinylidene difluoride (PVDF) membranes by a wet transfer apparatus (Bio-Rad, USA). […] The protein bands were detected with an enhanced chemiluminescence kit (Millipore, Cat#WBKLS0500) using a gel imaging system (Bio-Rad, USA) for visualization and standardization of the amount of protein loaded. α-Tubulin was used as the internal control. […]
# AKI mice [3] = assay: tubular injury / renal injury of AKI mice (HE histology); assay type: in vivo, mouse
# Method: (§1) LPS (Sigma, Cat#L2630) was dissolved in PBS to 2.5 mg/mL for one-time intraperitoneal 25 mg/kg injection; deoxyribonuclease I (DNase I, Sigma, Cat#SLBV1446) was dissolved in PBS to 1 mg/mL and injected intraperitoneally at a dose of 10 mg/kg at 4 h before cisplatin or AA I injection and every 24 h after injection. Disulfiram (MedChemExpress, CAS:97-77-8) was diluted in corn oil to 12.5 mg/mL and injected 50 mg/kg intraperitoneally every 24 h after cisplatin or AA I administration. Cu(II) (Sigma, Cat#344419) was dissolved in PBS to 30 µg/mL and administered intraperitoneally 6 h before disulfiram at a dose of 0.15 mg/kg; TNF-α (Peprotech, Cat#315-01 A) was dissolved in PBS to 10 µg/mL and injected at 100 µg/kg once through the caudal vein 24 h before cisplatin injection. […] MCC950 (MedChem Express, CAS:256373-96-3) was dissolved in PBS to 5 mg/mL and injected intraperitoneally at a dose of 50 mg/kg 12 h before cisplatin or AA I injection and every 12 h after injection; berberine (APExBIO, Cat#N1368) was dissolved in PBS to 5 mg/mL and 5 mg/kg injected intraperitoneally at 36, 24 and 12 h before cisplatin; […] To supervise the effects of various treatments on survival time and rate, the mice were observed, and survival curves were generated. To investigate the specific mechanisms, whole blood was retrieved from the orbit, serum was separated through centrifugation on the 4th day, and the mice were then sacrificed by cervical dislocation. Mice were randomly assigned in experiments, while there was no blinding during the animal experiments. Renal function was evaluated based on serum creatinine level and histological features. Serum creatinine was determined in the Clinical Pharmacology Lab, Clinical Trial Center, WCH, SCU. The kidneys were extracted from euthanized mice, immediately fixed with 4% paraformaldehyde, and embedded in paraffin. Furthermore, the samples were cut into 5 µm thick sections. These tissue samples were subjected to hematoxylin-eosin (HE) and […] according to standard protocols with HE reagent (Biosharp, Cat#BL702B, BL703B) and Masson reagent (Servicebio, Cat#G1006-100ML). The pathological changes were detected through optical microscopy, and the tubulointerstitial injury score was determined as previously reported.
# NEK7 [4] = settings: low dose; cited from earlier work
# Excerpt: Furthermore, we investigated the potential therapeutic medicines targeting to NEK7 and evaluated their effects on alleviating AKI. […] A ...
# NEK7 [5] = assay: NEK7 expression in iBMDMs (immunoblot); assay type: cell-based, mouse; settings: LPS plus metformin 0, 1, 2 or 5 mM, Fig. 9a
# Method: For immunoblot analysis of kidney tissue, total protein lysates were prepared from renal tissue, which was ground in liquid nitrogen and then added to lysis buffer in a Total Protein Extraction Kit (Signalway Antibody, Cat#PE001). Samples were centrifuged at 12,000 rpm for 15 min at 4 °C, and the supernatant was collected immediately. For immunoblot analysis of cells, cultured cells after treatment were lysed with lysis buffer, which was premixed with protease and phosphatase inhibitors (Signalway Antibody, Cat#PE001). The samples were centrifuged at 12,000 r/min for 15 min at 4 °C, and the supernatant was collected immediately. Ultimately, both types of protein samples were then mixed with 4× Laemmli loading buffer (Bio-Rad, Cat#1610747) and denatured by boiling at 95 °C for 5 min.
# (§2) Prepared protein samples were subjected to 6-15% SDS polyacrylamide gels and separated according to the protein concentrations. Then, the protein bands were transferred to polyvinylidene difluoride (PVDF) membranes by a wet transfer apparatus (Bio-Rad, USA). […] The protein bands were detected with an enhanced chemiluminescence kit (Millipore, Cat#WBKLS0500) using a gel imaging system (Bio-Rad, USA) for visualization and standardization of the amount of protein loaded. α-Tubulin was used as the internal control.
# AKI mice [6] = assay: serum creatinine of AKI mice; assay type: in vivo, mouse
# Method: as §1
# AKI mice [7] = assay: survival of AKI mice; assay type: in vivo, mouse; settings: n = 10 per group
# Method: (§3) Aristolochic acid I sodium salt was dissolved in PBS to 1 mg/mL and injected intraperitoneally at a dose of 10 mg/kg (body weight) every 24 h for 3 days; cisplatin was dissolved in PBS to 1.5 mg/mL for one-time intraperitoneal 25 mg/kg injection; LPS (Sigma, Cat#L2630) was dissolved in PBS to 2.5 mg/mL for one-time intraperitoneal 25 mg/kg injection; deoxyribonuclease I (DNase I, Sigma, Cat#SLBV1446) was dissolved in PBS to 1 mg/mL and injected intraperitoneally at a dose of 10 mg/kg at 4 h before cisplatin or AA I injection and every 24 h after injection. Disulfiram (MedChemExpress, CAS:97-77-8) was diluted in corn oil to 12.5 mg/mL and injected 50 mg/kg intraperitoneally every 24 h after cisplatin or AA I administration. Cu(II) (Sigma, Cat#344419) was dissolved in PBS to 30 µg/mL and administered intraperitoneally 6 h before disulfiram at a dose of 0.15 mg/kg; TNF-α (Peprotech, Cat#315-01 A) was dissolved in PBS to 10 µg/mL and injected at 100 µg/kg once through the caudal vein 24 h before cisplatin injection. Metformin (Sigma, Cat#D150959) was dissolved in PBS to 5 mg/mL and injected intraperitoneally at a dose of 50 mg/kg 24 h before cisplatin or AA I injection and every 24 h after injection. MCC950 (MedChem Express, CAS:256373-96-3) was dissolved in PBS to 5 mg/mL and injected intraperitoneally at a dose of 50 mg/kg 12 h before cisplatin or AA I injection and every 12 h after injection; berberine (APExBIO, Cat#N1368) was dissolved in PBS to 5 mg/mL and 5 mg/kg injected intraperitoneally at 36, 24 and 12 h before cisplatin; A20-derived-peptide was dissolved in ddH2O to 3 mg/mL and injected intraperitoneally at a dose of 15 mg/kg 1 h before cisplatin. To supervise the effects of various treatments on survival time and rate, the mice were observed, and survival curves were generated. To investigate the specific mechanisms, whole blood was retrieved from the orbit, serum was separated through centrifugation on the 4th day, and the mice were then sacrificed by cervical dislocation. Mice were randomly assigned in experiments, while there was no blinding during the animal experiments.
# AKI mice [8] = assay: overall therapeutic effect in AKI mice; assay type: in vivo, mouse; settings: TNF-α vs Anc80L65 (A20 overexpression)
# Method: as §3
# BMDMs = assay: pyroptotic induction of BMDMs by ox-DNA or LPS plus ATP (immunoblot of GSDMD); assay type: cell-based, mouse; settings: BMDMs pretreated with low-dose TNF-α before ox-dsDNA90 or LPS plus ATP; Fig. 6l
# Method: Primary bone marrow-derived macrophages (BMDMs) were isolated from 6- to 8-week-old C57BL/6J male mice. The mice were sacrificed and soaked in 75% alcohol for 1–2 min. The femurs and tibias were removed and immersed in PBS containing 500 U/mL penicillin and […] streptomycin for 3 min. The marrow cavities were repeatedly rinsed with DMEM using a sterile 1 mL syringe. The cell suspension was collected and centrifuged at 300 × g for 10 min, and the supernatant was discarded. The cell pellet was resuspended in 5 mL red cell lysis buffer (Bio Sharp, Cat#BL503A) on ice for 5 min, followed by centrifugation, and the supernatant was removed. The cells were then resuspended in DMEM complete culture medium supplemented with 10% FBS and 30% L929 cell-conditioned medium as an induction factor.[51] Half of the medium was changed every other day for 5–7 days. The suspended cells were removed, and the adherent BMDMs were digested with trypsin and plated on a six-well plate at a density of 1 × 10^6 cells/well. […]
# as §2, with “concentrations.” for “concentrations. Then, the protein bands were transferred to polyvinylidene difluoride (PVDF) membranes by a wet transfer apparatus (Bio-Rad, USA).”
# [9] = Cis mice, metformin 50 mg/kg i.p. 24 h before and every 24 h after
# [10] = Cis or AA I mice, TNF-α 100 µg/kg pre-injection
molecule,measurement,setting,value
N.N.[Cl][Pt][Cl] [cisplatin],patients developing AKI after first course of treatment,patients,Approximately 13%
"CN(C)C(=N)N=C(N)N [metformin, Metformin]",renal fibrosis,AKI mice [1],"markedly ameliorated cisplatin-induced serum creatines, tubular injury, renal fibrosis"
same,NEK7 expression in vivo,NEK7 [2],downregulates NEK7
same,tubular injury (in words),AKI mice [3]; [9],"markedly ameliorated cisplatin-induced serum creatines, tubular injury"
same,NEK7 expression (literature),NEK7 [4],limit the expression of NEK7 to alleviate inflammation
same,NEK7 expression in vitro,NEK7 [5],downregulates NEK7
same,serum creatinine (in words),AKI mice [6]; [9],markedly ameliorated cisplatin-induced serum creatines
same,survival,AKI mice [7]; [9],longer survival time and better survival rate
TNF-α,alleviation of AKI compared with Anc80L65,AKI mice [8],more efficient in alleviating AKI
same,resistance of BMDMs to pyroptotic induction,BMDMs,more resistant to pyroptotic induction
same,tubular injury (in words),AKI mice [3]; [10],alleviated serum creatinine and tubular injury
same,serum creatinine (in words),AKI mice [6]; [10],alleviated serum creatinine
same,survival,"AKI mice [7]; Cis or AA I mice, TNF-α 100 µg/kg once through the caudal vein 24 h before",extended overall survival benefit
